# Data as given in US9422297B2, “Tricyclic compounds having cytostatic and/or cytotoxic activity and methods of use thereof” (Duquesne University of the Holy Ghost, priority 2007, dated 2016).
# Experiments:
# A431 cytotoxicity assay = type: cell-based; conditions: human, A431 cells; Table 3
# AS45/ATCC = test: NCI In-Vitro Testing, Non-Small Cell Lung Cancer; type: cell-based
# HOP-92 = test: NCI In-Vitro Testing, Non-Small Cell Lung Cancer; type: cell-based
# NCI-H23 = test: NCI In-Vitro Testing, Non-Small Cell Lung Cancer; type: cell-based
# NCI-H460 = test: NCI In-Vitro Testing, Non-Small Cell Lung Cancer; type: cell-based
# COLO 205 = test: NCI In-Vitro Testing, Colon Cancer; type: cell-based
# HCT-116 = test: NCI In-Vitro Testing, Colon Cancer; type: cell-based
# SNB-19 = test: NCI In-Vitro Testing, CNS Cancer; type: cell-based
# SNB-75 = test: NCI In-Vitro Testing, CNS Cancer; type: cell-based
# SK-MEL-5 = test: NCI In-Vitro Testing, Melanoma; type: cell-based
# UACC-257 = test: NCI In-Vitro Testing, Melanoma; type: cell-based
# IGROV1 = test: NCI In-Vitro Testing, Ovarian Cancer; type: cell-based
# OVCAR-4 = test: NCI In-Vitro Testing, Ovarian Cancer; type: cell-based
# 785-0 = test: NCI In-Vitro Testing, Renal Cancer; type: cell-based
# SN12C = test: NCI In-Vitro Testing, Renal Cancer; type: cell-based
# PC-3 = test: NCI In-Vitro Testing, Prostate Cancer; type: cell-based
# DU-145 = test: NCI In-Vitro Testing, Prostate Cancer; type: cell-based
# T-47D = test: NCI In-Vitro Testing, Breast Cancer; type: cell-based
# 60 tumor cell line panel = test: NCI 60 preclinical in vitro tumor screening panel; conditions: read-out: GI50 across tumor panel
structure (smiles),measurement,setting,value
Nc1nc2c(c(Nc3ccc(Cl)cc3)n1)-c1ccccc1C2 [AAG145-136],IC50,A431 cytotoxicity assay,9.7 µM
same,GI50,AS45/ATCC,4.34E−8 Molar
same,LC50,AS45/ATCC,>1.00E−4 Molar
same,TGI,AS45/ATCC,>1.00E−4 Molar
same,Percent Growth,AS45/ATCC; Log10 Concentration −4.0 Molar,7%
same,Percent Growth,AS45/ATCC; Log10 Concentration −5.0 Molar,15%
same,Percent Growth,AS45/ATCC; Log10 Concentration −6.0 Molar,21%
same,Percent Growth,AS45/ATCC; Log10 Concentration −7.0 Molar,33%
same,Percent Growth,AS45/ATCC; Log10 Concentration −8.0 Molar,30%
same,GI50,HOP-92,1.81E−5 Molar
same,LC50,HOP-92,>1.00E−4 Molar
same,TGI,HOP-92,>1.00E−4 Molar
same,Percent Growth,HOP-92; Log10 Concentration −4.0 Molar,15%
same,Percent Growth,HOP-92; Log10 Concentration −5.0 Molar,62%
same,Percent Growth,HOP-92; Log10 Concentration −6.0 Molar,74%
same,Percent Growth,HOP-92; Log10 Concentration −7.0 Molar,96%
same,Percent Growth,HOP-92; Log10 Concentration −8.0 Molar,100%
same,GI50,NCI-H23,5.55E−7 Molar
same,LC50,NCI-H23,>1.00E−4 Molar
same,TGI,NCI-H23,>1.00E−4 Molar
same,Percent Growth,NCI-H23; Log10 Concentration −4.0 Molar,16%
same,Percent Growth,NCI-H23; Log10 Concentration −5.0 Molar,21%
same,Percent Growth,NCI-H23; Log10 Concentration −6.0 Molar,37%
same,Percent Growth,NCI-H23; Log10 Concentration −7.0 Molar,90%
same,Percent Growth,NCI-H23; Log10 Concentration −8.0 Molar,86%
same,GI50,NCI-H460,1.93E−8 Molar
same,LC50,NCI-H460,>1.00E−4 Molar
same,TGI,NCI-H460,>1.00E−4 Molar
same,Percent Growth,NCI-H460; Log10 Concentration −4.0 Molar,3%
same,Percent Growth,NCI-H460; Log10 Concentration −5.0 Molar,3%
same,Percent Growth,NCI-H460; Log10 Concentration −6.0 Molar,15%
same,Percent Growth,NCI-H460; Log10 Concentration −7.0 Molar,23%
same,Percent Growth,NCI-H460; Log10 Concentration −8.0 Molar,61%
same,GI50,COLO 205,6.38E−7 Molar
same,LC50,COLO 205,>1.00E−4 Molar
same,TGI,COLO 205,>1.00E−4 Molar
same,Percent Growth,COLO 205; Log10 Concentration −4.0 Molar,11%
same,Percent Growth,COLO 205; Log10 Concentration −5.0 Molar,11%
same,Percent Growth,COLO 205; Log10 Concentration −6.0 Molar,41%
same,Percent Growth,COLO 205; Log10 Concentration −7.0 Molar,86%
same,Percent Growth,COLO 205; Log10 Concentration −8.0 Molar,99%
same,GI50,HCT-116,3.81E−8 Molar
same,LC50,HCT-116,>1.00E−4 Molar
same,TGI,HCT-116,>1.00E−4 Molar
same,Percent Growth,HCT-116; Log10 Concentration −4.0 Molar,6%
same,Percent Growth,HCT-116; Log10 Concentration −5.0 Molar,13%
same,Percent Growth,HCT-116; Log10 Concentration −6.0 Molar,13%
same,Percent Growth,HCT-116; Log10 Concentration −7.0 Molar,23%
same,Percent Growth,HCT-116; Log10 Concentration −8.0 Molar,87%
same,GI50,SNB-19,1.13E−7 Molar
same,LC50,SNB-19,>1.00E−4 Molar
same,TGI,SNB-19,>1.00E−4 Molar
same,Percent Growth,SNB-19; Log10 Concentration −4.0 Molar,6%
same,Percent Growth,SNB-19; Log10 Concentration −5.0 Molar,17%
same,Percent Growth,SNB-19; Log10 Concentration −6.0 Molar,28%
same,Percent Growth,SNB-19; Log10 Concentration −7.0 Molar,51%
same,Percent Growth,SNB-19; Log10 Concentration −8.0 Molar,100%
same,GI50,SNB-75,5.03E−6 Molar
same,LC50,SNB-75,>1.00E−4 Molar
same,TGI,SNB-75,6.44E−5 Molar
same,Percent Growth,SNB-75; Log10 Concentration −4.0 Molar,−10%
same,Percent Growth,SNB-75; Log10 Concentration −5.0 Molar,41%
same,Percent Growth,SNB-75; Log10 Concentration −6.0 Molar,71%
same,Percent Growth,SNB-75; Log10 Concentration −7.0 Molar,92%
same,Percent Growth,SNB-75; Log10 Concentration −8.0 Molar,95%
same,GI50,SK-MEL-5,5.13E−7 Molar
same,LC50,SK-MEL-5,>1.00E−4 Molar
same,TGI,SK-MEL-5,1.59E−5 Molar
same,Percent Growth,SK-MEL-5; Log10 Concentration −4.0 Molar,−45%
same,Percent Growth,SK-MEL-5; Log10 Concentration −5.0 Molar,11%
same,Percent Growth,SK-MEL-5; Log10 Concentration −6.0 Molar,35%
same,Percent Growth,SK-MEL-5; Log10 Concentration −7.0 Molar,87%
same,Percent Growth,SK-MEL-5; Log10 Concentration −8.0 Molar,95%
same,GI50,UACC-257,6.45E−8 Molar
same,LC50,UACC-257,>1.00E−4 Molar
same,TGI,UACC-257,>1.00E−4 Molar
same,Percent Growth,UACC-257; Log10 Concentration −4.0 Molar,6%
same,Percent Growth,UACC-257; Log10 Concentration −5.0 Molar,21%
same,Percent Growth,UACC-257; Log10 Concentration −6.0 Molar,33%
same,Percent Growth,UACC-257; Log10 Concentration −7.0 Molar,46%
same,Percent Growth,UACC-257; Log10 Concentration −8.0 Molar,102%
same,GI50,IGROV1,2.87E−7 Molar
same,LC50,IGROV1,>1.00E−4 Molar
same,TGI,IGROV1,>1.00E−4 Molar
same,Percent Growth,IGROV1; Log10 Concentration −4.0 Molar,11%
same,Percent Growth,IGROV1; Log10 Concentration −5.0 Molar,6%
same,Percent Growth,IGROV1; Log10 Concentration −6.0 Molar,24%
same,Percent Growth,IGROV1; Log10 Concentration −7.0 Molar,72%
same,Percent Growth,IGROV1; Log10 Concentration −8.0 Molar,93%
same,GI50,OVCAR-4,4.16E−6 Molar
same,LC50,OVCAR-4,>1.00E−4 Molar
same,TGI,OVCAR-4,>1.00E−4 Molar
same,Percent Growth,OVCAR-4; Log10 Concentration −4.0 Molar,19%
same,Percent Growth,OVCAR-4; Log10 Concentration −5.0 Molar,30%
same,Percent Growth,OVCAR-4; Log10 Concentration −6.0 Molar,82%
same,Percent Growth,OVCAR-4; Log10 Concentration −7.0 Molar,84%
same,Percent Growth,OVCAR-4; Log10 Concentration −8.0 Molar,83%
same,GI50,785-0,5.14E−7 Molar
same,LC50,785-0,>1.00E−4 Molar
same,TGI,785-0,>1.00E−4 Molar
same,Percent Growth,785-0; Log10 Concentration −4.0 Molar,16%
same,Percent Growth,785-0; Log10 Concentration −5.0 Molar,26%
same,Percent Growth,785-0; Log10 Concentration −6.0 Molar,31%
same,Percent Growth,785-0; Log10 Concentration −7.0 Molar,97%
same,Percent Growth,785-0; Log10 Concentration −8.0 Molar,102%
same,GI50,SN12C,1.89E−7 Molar
same,LC50,SN12C,>1.00E−4 Molar
same,TGI,SN12C,>1.00E−4 Molar
same,Percent Growth,SN12C; Log10 Concentration −4.0 Molar,9%
same,Percent Growth,SN12C; Log10 Concentration −5.0 Molar,25%
same,Percent Growth,SN12C; Log10 Concentration −6.0 Molar,37%
same,Percent Growth,SN12C; Log10 Concentration −7.0 Molar,55%
same,Percent Growth,SN12C; Log10 Concentration −8.0 Molar,102%
same,GI50,PC-3,7.15E−7 Molar
same,LC50,PC-3,>1.00E−4 Molar
same,TGI,PC-3,7.99E−5 Molar
same,Percent Growth,PC-3; Log10 Concentration −4.0 Molar,−2%
same,Percent Growth,PC-3; Log10 Concentration −5.0 Molar,18%
same,Percent Growth,PC-3; Log10 Concentration −6.0 Molar,40%
same,Percent Growth,PC-3; Log10 Concentration −7.0 Molar,111%
same,Percent Growth,PC-3; Log10 Concentration −8.0 Molar,104%
same,GI50,DU-145,2.12E−7 Molar
same,LC50,DU-145,>1.00E−4 Molar
same,TGI,DU-145,>1.00E−4 Molar
same,Percent Growth,DU-145; Log10 Concentration −4.0 Molar,7%
same,Percent Growth,DU-145; Log10 Concentration −5.0 Molar,18%
same,Percent Growth,DU-145; Log10 Concentration −6.0 Molar,37%
same,Percent Growth,DU-145; Log10 Concentration −7.0 Molar,56%
same,Percent Growth,DU-145; Log10 Concentration −8.0 Molar,95%
same,GI50,T-47D,2.90E−6 Molar
same,LC50,T-47D,>1.00E−4 Molar
same,TGI,T-47D,>1.00E−4 Molar
same,Percent Growth,T-47D; Log10 Concentration −4.0 Molar,27%
same,Percent Growth,T-47D; Log10 Concentration −5.0 Molar,34%
same,Percent Growth,T-47D; Log10 Concentration −6.0 Molar,63%
same,Percent Growth,T-47D; Log10 Concentration −7.0 Molar,83%
same,Percent Growth,T-47D; Log10 Concentration −8.0 Molar,88%
same,GI50,60 tumor cell line panel,0.0312 to 1 µM
